Measured values as given in patent US20110028554A1, “PHARMACEUTICAL COMPOSITIONS COMPRISING DIIODOTHYRONINE AND THEIR THERAPEUTIC USE” (UNIVERSITE JOSEPH FOURIER, priority 2007, published 2011).

Tests used:
muscle mitochondria = experiment: Muscle mitochondrial oxygen consumption (JO2) of treated Wistar rats; type: in vivo
Method: All measurements were performed using mitochondria (0.2 mg mitochondrial protein/ml) incubated with various substrates: • GM: glutamate/malate (5 mM/2.5 mM) • SR: succinate/rotenone (5 mM/5 μM), • GMS: glutamate/malate/succinate (5 mM/2.5 mM/5 mM), • Palm: palmitoyl carnitine (55 μM), • Octa: octanoyl carnitine (100 μM), • TMPD/AsC: TMPD/ascorbate (0.5 mM/0.5 mM), and • TMPD/AsC/DNP: TMPD/ascorbate/DNP (0.5 mM/0.5 mM/75 μM).
JO2 was recorded in the presence of the substrate and following the addition of 1 mM ADP (state 3).
The oligomycin was added to the mitochondrial suspension to determine the non-phosphorylating respiratory rate (state 4).
The major part of the liver and the red part of each quadriceps were rinsed, and chopped into isolation medium (250 mM sucrose, 20 mM Tris-HCl and 1 mM EGTA-Tris, pH 7.4). Nuclei and cell debris were removed, by centrifugation at 800 g for 10 min. Mitochondria were then isolated from the supernatant by spinning twice at 8,000 g for 10 minutes. The mitochondrial pellet was resuspended in 0.5 ml of isolation buffer and kept on ice. Mitochondrial protein was measured by the bicinchoninic acid method (Pierce, Rockford, Ill.). The final mitochondrial suspensions were maintained on ice and were used for measurements of oxygen consumption rate and reactive oxygen species (ROS) production.
The rate of mitochondrial oxygen consumption (JO2) was measured at 30° C. in an incubation chamber with a Clark-type O2 electrode filled with 2 ml of incubation medium (125 mM KCl, 10 mM Pi-Tris, 20 mM Tris-HCl, 0.1 mM EGTA, pH 7.2). All measurements were performed using mitochondria (1.0 or 0.2 mg mitochondrial protein/ml for liver and skeletal muscle) incubated either with various substrates: glutamate/malate (5 mM/2.5 mM) and succinate (5 mM), alone or in combination, palmitoyl carnitine (55 μM) and octanoyl carnitine (100 μM). For each substrate, JO2 was recorded in the presence of the substrate alone (State 2) and following the addition of 1 mM ADP (state 3). Oligomycin (1.25 μg/mg protein) was added to the mitochondrial suspension to determine the non-phosphorylating respiratory rate (state 4). The incubation medium was constantly stirred with a built-in electromagnetic stirrer and bar flea. The efficiency of the mitochondrial oxidative phosphorylation was assessed by the state 3/state 4 ratio which measures the degree of control imposed on oxidation by phosphorylation (respiratory control ratio, RCR).

[1] = Plasmatic concentrations of glucose, triglycerides, cholesterol, FFA and HDL on the day of sacrifice; type: in vivo, Wistar, Zucker and ZDF rats
Excerpt: These measurements were done on venous blood of the rats the day of the sacrifice.
At the end of the experimental period, animals were sacrificed by decapitation, in order to avoid the well-known effects of general anesthetics on mitochondrial metabolism. Blood, samples were immediately collected and plasma was frozen for subsequent determination of serum metabolites and hormones. Liver, muscles and fat depots were quickly excised and weighed. Liver median lobe was rapidly freeze-clamped. Muscles (plantaris, soleus and gastrocnemius) were frozen in isopentane precooled in liquid nitrogen. Mesenteric fat consisted, of adipose tissue surrounding the gastro-intestinal tract from the gastro-oesophageal sphincter to the end of the rectum with special care taken in distinguishing and removing the pancreas. Retroperitoneal fat pad was taken as the distinct depot behind each kidney along the lumbar muscles. Epididymal fat consisted, of adipose tissue on top of the epididymis. For subcutaneous depot measurement, a rectangular piece of skin was taken on the right side of each animal from the median line of the abdomen between the spine and the right hip to the first rib. Interscapular brown adipose tissue was removed and dissected free from adjacent muscles and white adipose tissue. The heart ventricles, the right kidney and the spleen were also excised, weighed and frozen.
Glucose and 3-hydroxybutyrate (3-HB) were measured, enzymatically and non esterified fatty acid (NEFA) by colorimetric assay (Wako Chemicals).
Triglycerides and cholesterol were measured by classical routine automate apparatus.

[2] = Indirect calorimetry (energy expenditure, respiratory quotient) in Wistar rats; type: in vivo; conditions: low dosage 2.5 μg/100 g BW
Excerpt: Energy expenditure as well as the nature of substrate oxidized (carbohydrates or lipids) were investigated by indirect calorimetry. This principle is based on the determinations of CO2, release (VCO2) and O2 consumption (VO2) by each animal. It assumes that O2 is entirely involved in substrate oxidation in the respiratory chain (leading to water production) while CO2 release is related to substrate decarboxylation (in the Kreb's cycle). These measurements allow assessing energy expenditure (EE) and respiratory quotient ([…], RQ). EE represent the absolute energy dissipation during rest and activity. RQ is a relative measurement indicating the ratio of carbohydrate versus lipid involved in oxidative pathway. A ratio of 1.0 indicates exclusive carbohydrate oxidation while a ratio of 0.7 indicates exclusive lipid oxidation. Each value between these two extreme values indicates the relative proportion of each substrate (of note protein oxidation was not evaluated). As an example, RQ approaches 0.7 during fasting, indicating lipid oxidation, conversely after feeding RQ increases close to 1 indicating carbohydrate oxidation resulting from food intake and blood insulin rise. Likewise, animals fed high-carbohydrate diets have higher RQs than those fed high-fat diets.
The indirect calorimetry system (Panlab, Barcelona, Spain) consists of cages, pumps, flow controllers, valves, and analyzers. […]

N[C@@H](Cc1cc(I)c(Oc2ccc(O)cc2)c(I)c1)C(=O)O [3,5-T2, 3,5-diiodothyronine]
Muscle mitochondrial respiration, non-phosphorylating (state 4), vs placebo (muscle mitochondria; high dosage 25 μg/100 g BW): failed to substantially affect
Muscle mitochondrial respiration, phosphorylating (state 3), vs placebo (muscle mitochondria; high dosage 25 μg/100 g BW): failed to substantially affect
Muscle mitochondrial respiration, non-phosphorylating (state 4), vs placebo (muscle mitochondria; low dosage 2.5 μg/100 g BW): failed to substantially affect
Muscle mitochondrial respiration, phosphorylating (state 3), vs placebo (muscle mitochondria; low dosage 2.5 μg/100 g BW): failed to substantially affect
Plasmatic glucose at the end of the treatment ([1]; non-diabetic Wistar rats, low dosage 2.5 μg/100 g BW): minor changes
Plasmatic glucose at the end of the treatment ([1]; non-diabetic Zucker rats, 25 μg/100 g BW): minor changes
Respiratory quotient (RQ) vs placebo [2]: lower than RQ with placebo treatment during the day and the first part of the night
